Patent publication US12011433B2 (UNIVERSITÁ DEGLI STUDI DI BARI “ALDO MORO”, priority 2016, dated 2024)
Read-outs that look alike come from different tables or passages of the source.

What was measured:
[1] = Caco-2 monolayer efflux assay, Apparent Permeability (Papp), with or without GLUT-1 inhibitor phloretin; type: in vitro ADME, Human; conditions: human, compound alone
Description: (§1) In a monolayer efflux assay, the Apparent Permeability (Papp) in both basolateral to apical [Papp(B→A)] and apical to basolateral [Papp(A→B)] directions was determined for each compound (FIG. 2). Human colonic adenocarcinoma cell line (Caco-2) presents a facilitated transport system at the apical and basolateral surface. Caco-2 cells express high levels of GLUT-1 that are localized to the basolateral membrane and transport glucose to the serosal side.
(§2) The Papp(B→A) flux of each compound alone or in the presence of phloretin, a GLUT-1 inhibitor, has been determined. Since GLUT-1 is express in the basolateral compartment a high B→A flux means that the transport is GLUT-1 mediated because B→A flux represents the active transport.
(§3) A→B flux, which represents the passive transport, has also been determined for each compound (Table 2).

Caco-2 cells = experiment: as above; type: in vitro ADME, Human; conditions: for Papp B → A, Phloretin: in the presence of 100 mM Phloretin; for reduction of the basolateral to apical flux (Papp B→A) in the presence of phloretin: phloretin vs alone
Description: as §1, §2, §3

GLUT-1 = experiment: as above; type: in vitro ADME, Human; conditions: human
Description: as §1, §2, §3

COX-2 = COX-2 (Homo sapiens, UniProt P35354); experiment: colorimetric COX Inhibitor screening Assay (peroxidase component, oxidized TMPD at 590 nm); type: biochemical; conditions: for inhibition at 50 µM: the highest concentration tested; for IC50: human cyclooxygenase
Description: Human cyclooxygenase inhibitory activity was determined by a colorimetric COX Inhibitor screening Assay which measures the peroxidase component of the cyclooxygenases, monitoring the appearance of oxidized N,N,N′,N′-tetramethyl-p-phenylenediamine (TMPD) at 590 nm.

ovine COX-1 = ovine COX-1 (Ovis aries (Sheep), UniProt P05979); experiment: colorimetric COX (ovine) inhibitor screening assay kit; type: biochemical; conditions: for IC50: ovine COX-1; for inhibition at 50 µM: read-out: COX-1 [% inhibition at 50 μM], ovine COX-1, 50 μM
Description: (§4) Enzyme inhibition was determined using a colorimetric COX (ovine) inhibitor screening assay kit (Cayman Chemicals, Ann Arbor, MI, USA) following the manufacturer's instructions. Stock solutions of test compounds were dissolved in a minimum volume of DMSO.

ovine COX-2 = ovine COX-2 (Ovis aries (Sheep), UniProt P79208); experiment: as above; type: biochemical; conditions: for IC50: ovine COX-2; for inhibition at 50 µM: read-out: COX-2 [% inhibition at 50 μM], ovine COX-2, 50 μM
Description: as §4

COX-2, sequence (P35354 18-604 limits assumed): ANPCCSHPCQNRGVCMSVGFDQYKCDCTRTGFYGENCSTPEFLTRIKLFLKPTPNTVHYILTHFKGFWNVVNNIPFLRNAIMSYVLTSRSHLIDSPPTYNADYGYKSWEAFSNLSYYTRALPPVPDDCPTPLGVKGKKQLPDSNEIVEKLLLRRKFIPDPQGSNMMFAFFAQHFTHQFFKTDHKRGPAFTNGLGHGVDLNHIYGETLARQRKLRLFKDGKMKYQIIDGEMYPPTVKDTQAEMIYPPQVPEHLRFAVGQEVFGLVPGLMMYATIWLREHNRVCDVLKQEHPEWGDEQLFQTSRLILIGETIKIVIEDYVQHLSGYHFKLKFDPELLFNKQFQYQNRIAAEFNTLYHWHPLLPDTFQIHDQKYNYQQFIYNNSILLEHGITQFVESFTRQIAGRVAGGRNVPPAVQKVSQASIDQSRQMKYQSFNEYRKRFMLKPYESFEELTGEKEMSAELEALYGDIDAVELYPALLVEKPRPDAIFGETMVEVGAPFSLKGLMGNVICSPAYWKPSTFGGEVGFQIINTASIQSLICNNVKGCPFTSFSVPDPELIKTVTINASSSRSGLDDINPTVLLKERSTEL
ovine COX-2, sequence (P79208 17-603): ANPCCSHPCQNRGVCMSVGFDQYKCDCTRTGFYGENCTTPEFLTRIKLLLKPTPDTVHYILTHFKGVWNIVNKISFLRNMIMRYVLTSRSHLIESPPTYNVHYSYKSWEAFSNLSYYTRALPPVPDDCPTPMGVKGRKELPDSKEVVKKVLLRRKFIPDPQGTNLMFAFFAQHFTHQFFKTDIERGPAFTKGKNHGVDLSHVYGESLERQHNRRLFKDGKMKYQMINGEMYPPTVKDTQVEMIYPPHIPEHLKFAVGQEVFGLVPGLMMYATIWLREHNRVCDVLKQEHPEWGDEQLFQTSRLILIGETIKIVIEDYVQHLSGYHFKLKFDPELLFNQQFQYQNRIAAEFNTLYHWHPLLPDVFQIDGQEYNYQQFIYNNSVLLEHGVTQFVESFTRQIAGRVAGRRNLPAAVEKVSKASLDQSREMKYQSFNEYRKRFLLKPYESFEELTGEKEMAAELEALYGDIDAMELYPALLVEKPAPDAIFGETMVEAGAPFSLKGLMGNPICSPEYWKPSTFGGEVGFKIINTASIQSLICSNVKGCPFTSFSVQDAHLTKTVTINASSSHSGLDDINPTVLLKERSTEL
ovine COX-1, sequence (P05979 25-600): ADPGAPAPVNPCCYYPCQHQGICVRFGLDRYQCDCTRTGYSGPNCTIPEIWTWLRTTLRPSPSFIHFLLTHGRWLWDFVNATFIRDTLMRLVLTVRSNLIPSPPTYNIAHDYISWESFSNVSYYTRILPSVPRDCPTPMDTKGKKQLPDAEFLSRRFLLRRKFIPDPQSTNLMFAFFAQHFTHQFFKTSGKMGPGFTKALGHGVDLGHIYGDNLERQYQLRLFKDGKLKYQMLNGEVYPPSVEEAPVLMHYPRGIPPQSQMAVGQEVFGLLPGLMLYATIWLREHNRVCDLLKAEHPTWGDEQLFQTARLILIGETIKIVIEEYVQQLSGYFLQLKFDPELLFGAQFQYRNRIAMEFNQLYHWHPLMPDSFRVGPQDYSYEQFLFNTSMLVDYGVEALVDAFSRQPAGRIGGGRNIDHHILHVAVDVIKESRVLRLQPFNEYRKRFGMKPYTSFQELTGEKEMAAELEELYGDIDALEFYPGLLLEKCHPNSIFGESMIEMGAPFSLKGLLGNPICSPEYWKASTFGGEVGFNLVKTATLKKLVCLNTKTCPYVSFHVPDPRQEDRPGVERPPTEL

| Structure (SMILES) | IC50 (ovine COX-1) | inhibition at 50 µM (ovine COX-1) | IC50 (ovine COX-2) | inhibition at 50 µM (ovine COX-2) | other results |
| --- | --- | --- | --- | --- | --- |
| CCC(CCCNC(=O)Cc1onc(-c2ccc(OC)cc2)c1-c1ccc(OC)cc1)NC(=O)Cc1onc(-c2ccc(OC)cc2)c1-c1ccc(OC)cc1 (stereo not drawn) [Compound 12, N-(4-(2-(3,4-Bis(4-methoxyphenyl)isoxazol-5-yl)acetamido)hexyl)-3,4-bis(4-methoxyphenyl)isoxazole-5-carboxyamide] | – | – | – | – | melting point: 159 to 161 °C |
| COc1ccc(-c2noc(CC(=O)NCCCCC(=O)OC[C@H]3OC(O)[C@H](O)[C@@H](O)[C@H]3O)c2-c2ccc(OC)cc2)cc1 (mixture of isomers) [GALMOF5, 6-O-(5-{2-[3,4-bis(4-methoxyphenyl)isoxazol-5-yl]acetamido}pentanoyl)-D-galactopyranose] | – | – | – | – | Papp A→B [1]: 32.1 ×10⁻⁶ cm/s; Papp B→A [1]: 74.9 ×10⁻⁶ cm/s; Papp B → A, Phloretin (Caco-2 cells): 47.2 ×10⁻⁶ cm/s; Papp A→B (GLUT-1; with phloretin 100 mM (GLUT-1 inhibitor), in the presence of 100 mM Phloretin, read-out: Papp A → B, Phloretin): 32.1 ×10⁻⁶ cm/s; Papp B→A (GLUT-1; with phloretin 100 mM (GLUT-1 inhibitor), in the presence of 100 mM Phloretin, read-out: Papp B → A, Phloretin): 47.2 ×10⁻⁶ cm/s; inhibition at 50 µM (COX-2): 24%; IC50 (COX-2): > 50000 nM |
| COc1ccc(-c2noc(CC(=O)OCC3OC(O)C(O)C(O)C3O)c2-c2ccc(OC)cc2)cc1 (stereo not drawn) [drawing 44] | 100 nM | 100% | 700 nM | 87% | – |
| COc1ccc(-c2noc(CC(=O)NCC(=O)O)c2-c2ccc(OC)cc2)cc1 | – | 23% | – | 17% | – |
| COc1ccc(-c2noc(CC(=O)Nc3ccc(-c4ccc(NC(=O)Cc5onc(-c6ccc(OC)cc6)c5-c5ccc(OC)cc5)cc4)cc3)c2-c2ccc(OC)cc2)cc1 [Compound 16, N,N′-(Biphenyl-4,4′-di-yl)bis(2-(3,4-bis(4-methoxyphenyl)isoxazol-5-yl)acetamide)] | – | – | – | – | melting point: 240 to 243 °C |
| COc1ccc(-c2noc(CC(=O)NCCCCCCNC(=O)Cc3onc(-c4ccc(OC)cc4)c3-c3ccc(OC)cc3)c2-c2ccc(OC)cc2)cc1 | 9000 nM | 50% | > 50000 nM | 22% | – |
| COc1ccc(-c2noc(CC(=O)NCCCCNC(=O)Cc3onc(-c4ccc(OC)cc4)c3-c3ccc(OC)cc3)c2-c2ccc(OC)cc2)cc1 [Compound 11, N-(4-(2-(3,4-Bis(4-methoxyphenyl)isoxazol-5-yl)acetamido)butyl)-3,4-bis(4-methoxyphenyl)isoxazole-5-carboxyamide] | – | – | – | – | melting point: 163 to 166 °C |
| CCCCC/C=C\C/C=C\C/C=C\C/C=C\CCCC(=O)NCCCCNC(=O)Cc1onc(-c2ccc(OC)cc2)c1-c1ccc(OC)cc1 | 16000 nM | 57% | 800 nM | 61% | – |
| COc1ccc(-c2noc(CC(=O)Nc3ccc(NC(=O)Cc4onc(-c5ccc(OC)cc5)c4-c4ccc(OC)cc4)cc3)c2-c2ccc(OC)cc2)cc1 [drawing 65] | 150 nM | 85% | > 50000 nM | – | – |
| COc1ccc(-c2noc(CC(=O)NCc3ccc(CNC(=O)Cc4onc(-c5ccc(OC)cc5)c4-c4ccc(OC)cc4)cc3)c2-c2ccc(OC)cc2)cc1 | > 50000 nM | – | > 50000 nM | – | – |
| COc1ccc(-c2noc(CC(=O)NCCCCNC(=O)Cc3onc(-c4ccc(OC)cc4)c3-c3ccc(OC)cc3)c2-c2ccc(OC)cc2)cc1 [drawing 64] | 5500 nM | 74% | > 50000 nM | – | – |
| COc1ccc(-c2noc(CC(=O)NCCCCCCCCCCC(=O)OCC3OC(O)C(O)C(O)C3O)c2-c2ccc(OC)cc2)cc1 [GALMOF11, [(2S,3R,4S,6R)-3,4,5,6-tetrahydroxytetrahydro-2H-pyran-2-yl-]mhetyl 11-{2-[3,4-bis(4-methoxyphenyl)isoxazol-5-yl-]acetamido}undecanoate] | – | – | – | – | Papp B→A (Caco-2 cells; compound alone): 77.2 ×10⁻⁶ cm/s; Papp B → A, Phloretin (Caco-2 cells): 62.2 ×10⁻⁶ cm/s; reduction of the basolateral to apical flux (Papp B→A) in the presence of phloretin (Caco-2 cells): 20%; Papp A→B (GLUT-1; compound alone, read-out: Papp A → B): 29.2 ×10⁻⁶ cm/s; Papp B→A (GLUT-1; compound alone, read-out: Papp B → A): 77.2 ×10⁻⁶ cm/s; Papp A→B (GLUT-1; with phloretin (GLUT-1 inhibitor), in Phloretin, read-out: Papp A → B, Phloretin): 29.2 ×10⁻⁶ cm/s; Papp B→A (GLUT-1; with phloretin (GLUT-1 inhibitor), in Phloretin, read-out: Papp B → A, Phloretin): 62.2 ×10⁻⁶ cm/s; inhibition at 50 µM (COX-2): 64%; IC50 (COX-2): 270 nM |
| COc1ccc(-c2noc(CC(=O)Nc3ccc(-c4ccc(NC(=O)Cc5onc(-c6ccc(OC)cc6)c5-c5ccc(OC)cc5)cc4)cc3)c2-c2ccc(OC)cc2)cc1 [drawing 66] | 80 nM | 73% | > 50000 nM | – | – |
| COc1ccc(-c2noc(CC(=O)O)c2-c2ccc(OC)cc2)cc1 [drawing 42, reference compound] | – | 100% | > 50000 nM | 38% | – |
| CCCCC/C=C\C/C=C\C/C=C\C/C=C\CCCC(=O)Nc1ccc(NC(=O)Cc2onc(-c3ccc(OC)cc3)c2-c2ccc(OC)cc2)cc1 | 49 nM | 66% | > 50000 nM | 40% | – |
| COC(=O)CNC(=O)Cc1onc(-c2ccc(OC)cc2)c1-c1ccc(OC)cc1 | 70 nM | 95% | 4400 nM | 80% | – |
| COc1ccc(-c2noc(CC(=O)NCCNC(=O)Cc3onc(-c4ccc(OC)cc4)c3-c3ccc(OC)cc3)c2-c2ccc(OC)cc2)cc1 [Compound 10, N,N′-(Ethane-1,2-di-yl)-bis-(2-[3,4-bis (4-methoxyphenyl)isoxazol-5-yl]acetamide)] | – | – | – | – | melting point: 145 to 148 °C |
| COc1ccc(-c2noc(CC(=O)Nc3ccc(NC(=O)Cc4onc(-c5ccc(OC)cc5)c4-c4ccc(OC)cc4)cc3)c2-c2ccc(OC)cc2)cc1 [Compound 14] | – | – | – | – | melting point: 178 to 182 °C |
| COc1ccc(-c2noc(CC(=O)NCCCCC(=O)OC[C@H]3OC(O)[C@H](O)[C@@H](O)[C@H]3O)c2-c2ccc(OC)cc2)cc1 (stereo partly drawn) [GALMOF5, 6-O-(5-{2-[3,4-bis(4-methoxyphenyl)isoxazol-5-yl]acetamido}pentanoyl)-D-galactopyranose] | – | – | – | – | reduction of the basolateral to apical flux (Papp B→A) in the presence of phloretin (Caco-2 cells): 37% |
| CCCCCCCCC(CCCNC(=O)Cc1onc(-c2ccc(OC)cc2)c1-c1ccc(OC)cc1)NC(=O)Cc1onc(-c2ccc(OC)cc2)c1-c1ccc(OC)cc1 (stereo not drawn) [Compound 13, N-(4-(2-(3,4-Bis(4-methoxyphenyl)isoxazol-5-yl)acetamido)dodecyl)-3,4-bis(4-methoxyphenyl)isoxazole-5-carboxyamide] | – | – | – | – | melting point: 134 to 138 °C |
| COc1ccc(-c2noc(CC(=O)NCCNC(=O)Cc3onc(-c4ccc(OC)cc4)c3-c3ccc(OC)cc3)c2-c2ccc(OC)cc2)cc1 [drawing 61] | 13 nM | 75% | 120 nM | 45% | – |
